Structures are written as SMILES. Starred links: 1 amine or outer side, 2 acyl side, 3 side chain; linkers in the order of their positions; H or OH if unused. Positions of bridges follow the written chain, without caps; N, C: chain ends. Non-standard residues stand in square brackets, D forms with d. Residues, ends and D or L forms follow the SMILES beside them. *: point of attachment. hPhe(3-Cl-4-CF3) = N[C@@H](CCc1ccc(C(F)(F)F)c(Cl)c1)C(=O)O; hPhe(3-F,4-CF3) = N[C@@H](CCc1ccc(C(F)(F)F)c(F)c1)C(=O)O; NMePhe(4-CF3) = CN[C@@H](Cc1ccc(C(F)(F)F)cc1)C(=O)O; NEtAsp = CCN([C@@H](CC(=O)[*:3])C(=O)[*:2])[*:1]; 3Oxa8azabicyclo(3.2.1)octane = C1CC2COCC1N2*; NMePhe(4-Cl) = CN[C@@H](Cc1ccc(Cl)cc1)C(=O)O; NMePhe(4-F) = CN[C@@H](Cc1ccc(F)cc1)C(=O)O; NMedβ3hAla = C[C@H](CC(=O)[*:2])N(C)[*:1]; NMeGly(cPent) = CN[C@H](C(=O)O)C1CCCC1; Pro(4,4-F2) = O=C(O)[C@@H]1CC(F)(F)CN1; NMeGly(cBu) = CN[C@H](C(=O)O)C1CCC1; NMeCha = CN[C@@H](CC1CCCCC1)C(=O)O; NEtLeu = CCN[C@@H](CC(C)C)C(=O)O; NMeChg = CN[C@H](C(=O)O)C1CCCCC1; NMeI = CC[C@H](C)[C@H](NC)C(=O)O; NMeD = CN[C@@H](CC(=O)O)C(=O)O; NMeL = CN[C@@H](CC(C)C)C(=O)O; NMeV = CN[C@H](C(=O)O)C(C)C; d(β3hA) = C[C@@H](N)CC(=O)O; NMeS = CN[C@@H](CO)C(=O)O; Morpholide = C1CN(*)CCO1; NMeA = CN[C@@H](C)C(=O)O; Piperidide = C1CCN(*)CC1; Thz = O=C(O)[C@@H]1CSCN1; dNMeA = CN[C@H](C)C(=O)O; Ac5c = NC1(C(=O)O)CCCC1; Aze = O=C(O)[C@@H]1CCN1; Sar = CNCC(=O)O; Propyl = CCC*

The assay relates to Human pancreatic cancer cell line AsPC-1. Briefly: Measurement of AsPC-1 cell growth inhibition (AsPC-1 CGI). The assay is classed as cell-based. To be noted: 96 h. The procedure, abridged: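 AsPC-1 cells in 15% FBS RPMI-1640 were exposed to test compound for 96 hours at 37° C, with CellTiter-Glo as endpoint.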
In the case of `CCCOC[C@H]1C(=O)N(C)CC(=O)N[C@@H](CCc2ccc(C(F)(F)F)c(F)c2)C(=O)N2CCC[C@H]2C(=O)NC2(CCCC2)C(=O)N(C)[C@@H](C2CCCC2)C(=O)N(C)[C@H](C(=O)N2CCCCC2)CC(=O)N(C)[C@@H](CC(C)C)C(=O)N[C@@H]([C@@H](C)CC)C(=O)N(C)[C@@H](C)C(=O)N2CC[C@H]2C(=O)N1C` [Compound 1029] ([NMeL]I[NMeA][Aze][NMeS](Propyl)[Sar][hPhe(3-F,4-CF3)]P[Ac5c][NMeGly(cPent)][NMeD]-Piperidide; lactam N-11), the IC50 (in general, the point on the concentration scale where inhibition reaches its midpoint) lay within 0.02 to 0.05 µM. As for `CCCOC[C@H]1C(=O)N(C)CC(=O)N[C@@H](CCc2ccc(C(F)(F)F)c(F)c2)C(=O)N2CCC[C@H]2C(=O)NC2(CCCC2)C(=O)N(C)[C@@H](C2CCCC2)C(=O)N(C)[C@H](C(=O)N2C3CCC2COC3)CC(=O)N(C)[C@@H](CC(C)C)C(=O)N[C@@H]([C@@H](C)CC)C(=O)N(C)[C@@H](C)C(=O)N2CC[C@H]2C(=O)N1C` [Compound 1030] ([NMeL]I[NMeA][Aze][NMeS](Propyl)[Sar][hPhe(3-F,4-CF3)]P[Ac5c][NMeGly(cPent)][NMeD]-{3Oxa8azabicyclo(3.2.1)octane}; lactam N-11), the IC50 was in the range of 0.02 to 0.05 µM.

Compound `CC[C@H](C)[C@@H]1NC(=O)[C@H](C2CCC2)N(C)C(=O)C[C@@H](C(=O)N2CCCCC2)N(C)C(=O)[C@H](C(C)C)N(C)C(=O)C2(CCCC2)NC(=O)[C@@H]2CCCN2C(=O)[C@H](CCc2ccc(C(F)(F)F)c(Cl)c2)NC(=O)CN(C)C(=O)[C@H](CC2CCCCC2)N(C)C(=O)[C@@H]2CCN2C(=O)[C@H](C)N(C)C1=O` [Compound 1036] ([NMeGly(cBu)]I[NMeA][Aze][NMeCha][Sar][hPhe(3-Cl-4-CF3)]P[Ac5c][NMeV][NMeD]-Piperidide; lactam N-11) displayed an IC50 of 0.1 to 0.5 µM. Turning to `CC[C@H](C)[C@@H]1NC(=O)[C@H](CC(C)C)N(C)C(=O)C[C@@H](C(=O)N2CCCCC2)N(C)C(=O)[C@H](C(C)C)N(C)C(=O)C2(CCCC2)NC(=O)[C@@H]2CCCN2C(=O)[C@H](CCc2ccc(C(F)(F)F)c(F)c2)NC(=O)CN(C)C(=O)[C@H](CC2CCCCC2)N(C)C(=O)[C@@H]2CCN2C(=O)[C@H](C)N(C)C1=O` [Compound 1040] ([NMeL]I[NMeA][Aze][NMeCha][Sar][hPhe(3-F,4-CF3)]P[Ac5c][NMeV][NMeD]-Piperidide; lactam N-11), the IC50 was in the range of 0.1 to 0.5 µM.

For `CC[C@H](C)[C@@H]1NC(=O)[C@H](CC(C)C)N(C)C(=O)C[C@@H](C)N(C)C(=O)[C@H](C2CCCC2)N(C)C(=O)C2(CCCC2)NC(=O)[C@@H]2CCCN2C(=O)[C@H](CCc2ccc(C(F)(F)F)c(Cl)c2)NC(=O)CN(C)C(=O)[C@H](C2CCCC2)N(C)C(=O)[C@@H]2CCN2C(=O)[C@H](C)N(C)C1=O` [Compound 1046] (cyclo([Ac5c][NMeGly(cPent)][NMedβ3hAla][NMeL]I[NMeA][Aze][NMeGly(cPent)][Sar][hPhe(3-Cl-4-CF3)]P)), the IC50 was in the range of 0.02 to 0.05 µM. For the compound `CC[C@H](C)[C@@H]1NC(=O)[C@H](CC(C)C)N(C)C(=O)C[C@@H](C(=O)N2CCCCC2)N(CC)C(=O)[C@H](C2CCCC2)N(C)C(=O)C2(CCCC2)NC(=O)[C@@H]2CCCN2C(=O)[C@H](CCc2ccc(C(F)(F)F)c(Cl)c2)NC(=O)CN(C)C(=O)[C@H](C2CCC2)N(C)C(=O)[C@@H]2CCN2C(=O)[C@H](C)N(C)C1=O` [Compound 1047] ([NMeL]I[NMeA][Aze][NMeGly(cBu)][Sar][hPhe(3-Cl-4-CF3)]P[Ac5c][NMeGly(cPent)][NEtAsp]-Piperidide; lactam N-11), the IC50 was 0.05 to 0.1 µM.

`CC[C@H](C)[C@@H]1NC(=O)[C@H](CC(C)C)N(C)C(=O)C[C@@H](C(=O)N2CCCCC2)N(C)C(=O)[C@H]([C@@H](C)CC)N(C)C(=O)C2(CCCC2)NC(=O)[C@@H]2CCCN2C(=O)[C@H](CCc2ccc(C(F)(F)F)c(Cl)c2)NC(=O)CN(C)C(=O)[C@H](Cc2ccc(F)cc2)N(C)C(=O)[C@@H]2CCN2C(=O)[C@H](C)N(C)C1=O` [Compound 1060] ([NMeL]I[NMeA][Aze][NMePhe(4-F)][Sar][hPhe(3-Cl-4-CF3)]P[Ac5c][NMeI][NMeD]-Piperidide; lactam N-11) showed a concentration for half-maximal inhibition (IC50) of 0.02 to 0.05 µM. Then `CC[C@H](C)[C@@H]1NC(=O)[C@H](CC(C)C)N(C)C(=O)C[C@@H](C)N(C)C(=O)[C@H](C2CCCC2)N(C)C(=O)C2(CCCC2)NC(=O)[C@@H]2CC(F)(F)CN2C(=O)[C@H](CCc2ccc(C(F)(F)F)c(Cl)c2)NC(=O)CN(C)C(=O)[C@H](Cc2ccc(C(F)(F)F)cc2)N(C)C(=O)[C@@H]2CCN2C(=O)[C@H](C)N(C)C1=O` [Compound 1062] (cyclo([Ac5c][NMeGly(cPent)][NMedβ3hAla][NMeL]I[NMeA][Aze][NMePhe(4-CF3)][Sar][hPhe(3-Cl-4-CF3)][Pro(4,4-F2)])), with 0.02 to 0.05 µM. In turn, `CC[C@H](C)[C@@H]1NC(=O)[C@H](C)N(C)C(=O)C[C@@H](C)NC(=O)[C@H](C2CCCC2)N(C)C(=O)C2(CCCC2)NC(=O)[C@@H]2CCCN2C(=O)[C@H](CCc2ccc(C(F)(F)F)c(Cl)c2)NC(=O)[C@@H](C)N(C)C(=O)[C@H](C(C)C)N(C)C(=O)[C@@H]2CCN2C(=O)[C@H](C)N(C)C1=O` [Compound 1066] (cyclo([Ac5c][NMeGly(cPent)][d(β3hA)][NMeA]I[NMeA][Aze][NMeV][dNMeA][hPhe(3-Cl-4-CF3)]P)) returned a half-inhibitory concentration (IC50) of 0.1 to 0.5 µM.

`CC[C@H](C)[C@@H]1NC(=O)[C@H](C(C)C)N(C)C(=O)C[C@@H](C)NC(=O)[C@H](C(C)C)N(C)C(=O)C2(CCCC2)NC(=O)[C@H](CC(C)C)N(C)C(=O)[C@H](CCc2ccc(C(F)(F)F)c(Cl)c2)NC(=O)CN(C)C(=O)[C@H](Cc2ccc(Cl)cc2)N(C)C(=O)CN(C)C(=O)CN(C)C1=O` [Compound 1069] (cyclo([Ac5c][NMeV][d(β3hA)][NMeV]I[Sar][Sar][NMePhe(4-Cl)][Sar][hPhe(3-Cl-4-CF3)][NMeL])) came in with an IC50 of 0.1 to 0.5 µM.

As to `CC[C@H](C)[C@@H]1NC(=O)[C@H](CC(C)C)N(C)C(=O)C[C@@H](C(=O)N2CCCCC2)N(C)C(=O)[C@H](C2CCCCC2)N(C)C(=O)C2(CCCC2)NC(=O)[C@@H]2CSCN2C(=O)[C@H](CCc2ccc(C(F)(F)F)c(Cl)c2)NC(=O)CN(C)C(=O)[C@H](CC2CCCCC2)N(C)C(=O)CN(C)C(=O)CN(C)C1=O` [Compound 1093] ([NMeL]I[Sar][Sar][NMeCha][Sar][hPhe(3-Cl-4-CF3)][Thz][Ac5c][NMeChg][NMeD]-Piperidide; lactam N-11), the IC50 was in the range of 0.02 to 0.05 µM. For `CC[C@H](C)[C@@H]1NC(=O)[C@H](CC(C)C)N(C)C(=O)C[C@@H](C(=O)N2CCOCC2)N(C)C(=O)[C@H](C2CCCC2)N(C)C(=O)C2(CCCC2)NC(=O)[C@@H]2CCCN2C(=O)[C@H](CCc2ccc(C(F)(F)F)c(Cl)c2)NC(=O)CN(C)C(=O)[C@H](CC2CCCCC2)N(C)C(=O)[C@@H]2CCN2C(=O)[C@H](C)NC1=O` [Compound 1137] ([NMeL]IA[Aze][NMeCha][Sar][hPhe(3-Cl-4-CF3)]P[Ac5c][NMeGly(cPent)][NMeD]-Morpholide; lactam N-11) the value was 0.02 to 0.05 µM.

In turn, `CC[C@H](C)[C@@H]1NC(=O)[C@H](CC(C)C)N(CC)C(=O)C[C@@H](C(=O)N2CCOCC2)N(C)C(=O)[C@H](C2CCCC2)N(C)C(=O)C2(CCCC2)NC(=O)[C@@H]2CCCN2C(=O)[C@H](CCc2ccc(C(F)(F)F)c(Cl)c2)NC(=O)CN(C)C(=O)[C@H](C2CCCC2)N(C)C(=O)[C@@H]2CCN2C(=O)[C@H](C)NC1=O` [Compound 1140] ([NEtLeu]IA[Aze][NMeGly(cPent)][Sar][hPhe(3-Cl-4-CF3)]P[Ac5c][NMeGly(cPent)][NMeD]-Morpholide; lactam N-11) displayed a concentration for half-maximal inhibition (IC50) of 0.1 to 0.5 µM.

The record behind these values is patent US12371454B2, “Cyclic peptide compound having Kras inhibitory action” (priority 2019, dated 2025).
